Measurements published in PubChem BioAssay AID1996.
≈ marks a conversion by molar mass, not a printed value.

Conditions: buffer; pH 7.4; 200.0 µM

Row | SMILES | solubility kinetic
1 | O=C(NC(=S)NCc1ccco1)c1ccc([N+](=O)[O-])cc1 | 4.6 µg/mL (≈ 15.1 µM)
2 | CC1(C)C2CCC1(C)C(OC(=O)C[n+]1ccccc1N)C2.[Br-] (stereo unspecified) | > 55.4 µg/mL
3 | CC(C)COc1cccc(C(=O)N(C)CC(=O)Nc2cccc3ccccc23)c1 | 33.6 µg/mL (≈ 86 µM)
4 | OC(CNCc1ccccc1F)COc1cccc2ccccc12 (stereo unspecified) | 39.6 µg/mL (≈ 122 µM)
5 | CCOc1ccc(C(=O)CCC(=O)N2CCN(c3ccc(O)cc3)CC2)cc1 | 16.6 µg/mL (≈ 43.4 µM)
6 | Cc1ccc(NC(=O)CN2CCN(Cc3ccccc3)CC2)cc1 | > 48.5 µg/mL
7 | O=C(c1ccc(S(=O)(=O)Nc2ccccc2Cl)cc1)N1CCCC1 | > 54.7 µg/mL
8 | Cc1ccc(C(=O)Nc2ccncc2)cc1[N+](=O)[O-] | > 38.6 µg/mL
9 | CC(=O)C1=C(C)OC(N)=C(C#N)C1c1cccc2ccccc12 (stereo unspecified) | 37.6 µg/mL (≈ 124 µM)
10 | C/C(CC(=O)NCCN1CCOCC1)=N\NC(=O)c1ccncc1 | > 50 µg/mL
11 | C/[N+]([O-])=C/c1c(OCc2ccccc2)ccc2ccccc12 | > 43.7 µg/mL
12 | CN(CCC#N)C(=S)Nc1ccc(F)cc1 | 32.8 µg/mL (≈ 138 µM)
13 | Cc1cc(C)c2ccc(/C=N/O)nc2c1O | 2.8 µg/mL (≈ 12.9 µM)
14 | Cc1cc(C)c(C(=O)CN2C(=O)NC3(CCCCC3)C2=O)cc1C | 2 µg/mL (≈ 6.09 µM)
15 | Cn1cccc1C(=O)NC(=O)COC(=O)c1ccc(S(C)(=O)=O)c([N+](=O)[O-])c1 | 14.7 µg/mL (≈ 35.9 µM)
16 | Cc1ccc(N2CC(C(=O)N3CCCCCC3)CC2=O)cc1 (stereo unspecified) | > 45.1 µg/mL
17 | COc1cc(C(=O)OCC(=O)NC2CCCC2)cc(OC)c1OC | > 50.6 µg/mL
18 | Cc1ccc(O)c(NC(=O)c2noc(C(C)C)c2[N+](=O)[O-])c1 | 40.5 µg/mL (≈ 133 µM)
19 | CC1CCCCN1S(=O)(=O)c1csc(C(N)=O)c1 (stereo unspecified) | > 43.3 µg/mL
20 | CC(C)(C)c1ccc(NC(=O)COC(=O)C2CCCC2)cc1 | 13.5 µg/mL (≈ 44.5 µM)
21 | Cc1noc(-c2ccccc2)c1NC(=O)Nc1ccc(Cl)cc1 | 3.1 µg/mL (≈ 9.46 µM)
22 | CN(C)C(CNC(=O)c1ccc([N+](=O)[O-])cc1Cl)c1ccco1 (stereo unspecified) | > 50.7 µg/mL
23 | CN(C)C(=O)Nc1ccccc1 | > 24.6 µg/mL
24 | O=c1c([N+](=O)[O-])cccn1Cc1ccccc1Cl | > 39.7 µg/mL
25 | Cc1ccc2sc(=O)[nH]c2c1 | 19.4 µg/mL (≈ 117 µM)

Row | SMILES | solubility kinetic
26 | CCOC(=O)Cc1csc(NC(=O)c2cccc(Cl)c2)n1 | 6.9 µg/mL (≈ 21.2 µM)
27 | CN(C(=O)c1ccc(NC(=O)c2ccco2)cc1)c1ccccc1 | 2.9 µg/mL (≈ 9.05 µM)
28 | O=C(NC1=NCCS1)c1ccc(C(F)(F)F)cc1 | 6.1 µg/mL (≈ 22.2 µM)
29 | CN(CC(=O)NCCc1ccccc1)CC(=O)Nc1cccc(F)c1 | > 51.5 µg/mL
30 | O=C(CNC(=O)c1cccs1)NCCc1ccco1 | > 41.7 µg/mL
31 | O=C(O)c1ccc2c(=O)n(-c3ccc(F)cc3)c(=S)[nH]c2c1 | > 47.4 µg/mL
32 | COc1ccc(NS(=O)(=O)c2ccc(C)cc2)c([N+](=O)[O-])c1 | 44.1 µg/mL (≈ 137 µM)
33 | CNC(=S)Nc1ccc2[nH]c(=O)[nH]c2c1 | > 33.3 µg/mL
34 | O=C(O)c1ccccc1C(=O)NC1CCCc2ccccc21 (stereo unspecified) | > 44.3 µg/mL
35 | O=C(CCSc1ccc(Cl)cc1)NCc1ccncc1 | > 46 µg/mL
36 | CC(=O)Nc1cccc(OCCCNC(=O)C2CCC2)c1 | > 43.6 µg/mL
37 | O=C(O)c1cccc(N2C(=O)CSC2=S)c1 | > 38 µg/mL
38 | COc1cccc2[nH]c(C(=O)NCCc3ccccc3)cc12 | 1 µg/mL (≈ 3.4 µM)
39 | Cl.OC(COCc1ccc(Cl)cc1)CN1CCCCC1 (stereo unspecified) | 46.4 µg/mL
40 | Cc1ccc(C(=O)CNc2cc(C)ccc2C)cc1 | < 0.5 µg/mL
41 | O=C(/C=C/c1ccco1)NC(=S)N1CCCCC1 | 27.4 µg/mL (≈ 104 µM)
42 | C/C(=N\O)c1ccc2c(c1)OCCO2 | > 29 µg/mL
43 | COc1ccc(/C=C/C(=O)O)cc1S(=O)(=O)Nc1ccc2c(c1)OCO2 | 49.8 µg/mL (≈ 132 µM)
44 | CC1(C)CC2(C)OC(=N)C1(C#N)C2(C#N)C#N (stereo unspecified) | 34 µg/mL (≈ 149 µM)
45 | Oc1c(I)cc(Cl)c2cccnc12 | 0.8 µg/mL (≈ 2.62 µM)
46 | COc1ccccc1N1C(=O)c2cccnc2C1=O | 34.9 µg/mL (≈ 137 µM)
47 | COc1c(C=O)cc2c3c1CCCN3CCC2 | 29.7 µg/mL (≈ 128 µM)
48 | CCN(C(=O)COC(=O)c1ccccc1O)c1nc2ccccc2s1 | 2.4 µg/mL (≈ 6.73 µM)
49 | COc1ccc(NS(=O)(=O)c2ccc(-c3ccccn3)s2)cc1 | 0.8 µg/mL (≈ 2.31 µM)
50 | Cc1ccc(-n2c(/C=C/c3ccccn3)nc3ccccc3c2=O)cc1 | 0.6 µg/mL (≈ 1.77 µM)

Row | SMILES | solubility kinetic
51 | CN(C)c1ccc(C(=O)OCC(=O)NC2CCCCCC2)cc1 | 2.8 µg/mL (≈ 8.79 µM)
52 | O=C(CCC(=O)Nc1cccc([N+](=O)[O-])c1)NCc1ccccc1 | 48.5 µg/mL (≈ 148 µM)
53 | O=C(c1cc2cc(C(F)(F)F)ccc2s1)N1CCOCC1 | > 47.3 µg/mL
54 | O=C(CSc1nc2ccccc2c(=O)n1-c1ccccc1F)NC1CC1 | > 55.4 µg/mL
55 | O=C(COC(=O)C1CC1)Nc1ccc(Cl)cc1Cl | 41.9 µg/mL (≈ 145 µM)
56 | CC(=O)Nc1cc2nc(C)n(Cc3ccc([N+](=O)[O-])cc3)c2nc1C | > 50.9 µg/mL
57 | COc1ccc(N)cc1NC(=O)CN1CCCC1 | > 37.4 µg/mL
58 | Cc1ccsc1/C=C(\CC(=O)O)c1nc2ccccc2o1 | > 44.9 µg/mL
59 | O=C1CN(C(=O)c2ccc(F)cc2)c2ccccc2N1 | > 40.5 µg/mL
60 | COc1ccccc1CN(C)CC(=O)Nc1cccc(S(=O)(=O)N2CCCC2)c1.O=C(O)C(=O)O | 57.3 µg/mL
61 | CCOc1ccc2ccccc2c1C(=O)N[C@@H]1C(=O)N2[C@@H]1SC(C)(C)[C@@H]2C(=O)[O-].[Na+] | > 65.5 µg/mL
62 | O=C(NCCc1ccc(F)cc1)c1ccncc1 | > 36.6 µg/mL
63 | Cc1cc(C)c(C)c(S(=O)(=O)NCC(=O)Nc2ccccc2F)c1C | 12.2 µg/mL (≈ 33.5 µM)
64 | CCOC(=O)c1cc(C)[nH]c1C | 24.7 µg/mL (≈ 148 µM)
65 | c1ccc(CNc2ncnc3sc4c(c23)CCCC4)nc1 | 6.7 µg/mL (≈ 22.6 µM)
66 | CCn1cc(C(=O)NCCC(=O)NCCO)c(=O)c2cc3c(cc21)OCO3 | > 56.3 µg/mL
67 | CCc1ccc(N2CN=c3s/c(=C\c4ccccc4)c(=O)n3C2)cc1 | 8.2 µg/mL (≈ 23.5 µM)
68 | COC(=O)CSc1nc(NC(C)(C)C)nc(N(C)C)n1 | 38.7 µg/mL (≈ 129 µM)
69 | CCCn1c(=O)c(C(=O)Nc2cc(C)ccn2)c(O)c2ccccc21 | < 0.2 µg/mL
70 | ClC1(Cl)CC1Cn1cnc2ccccc21 (stereo unspecified) | 33.4 µg/mL (≈ 139 µM)
71 | Cc1cc(C)cc(NC(=O)CC2Oc3ccc(C)cc3NC2=O)c1 (stereo unspecified) | 1.6 µg/mL (≈ 4.93 µM)
72 | O=C1CSC(=Nc2cccc(Cl)c2Cl)N1Cc1cccnc1 | 30.8 µg/mL (≈ 87.4 µM)
73 | Nc1ccc(Oc2ccc3c(c2)C(=O)N(CC2CCCO2)C3=O)cc1 (stereo unspecified) | > 50.8 µg/mL
74 | CC(=O)N(c1nc(CCl)cs1)c1ccc(C)cc1C | > 44.2 µg/mL
75 | CCCc1c(C)nc(N2CCN(c3cccc(OC)c3)CC2)[nH]c1=O | 4 µg/mL (≈ 11.7 µM)

Row | SMILES | solubility kinetic
76 | COc1ccc(NC(=O)NCc2ccco2)cc1OC | 37.6 µg/mL (≈ 136 µM)
77 | Nc1cc(Cl)ccc1C(=O)OCC(=O)N1CCCCCC1 | 5.4 µg/mL (≈ 17.4 µM)
78 | C#CC1(NC(=O)NC(=O)c2c(F)cccc2F)CCCCC1 | 0.6 µg/mL (≈ 1.96 µM)
79 | O=C(CCNC(=O)c1ccc(Br)cc1)Nc1ccc(S(=O)(=O)N2CCOCC2)cc1 | 5.3 µg/mL (≈ 10.7 µM)
80 | COc1cc(CSc2nc(-c3ccccc3)cc(=O)[nH]2)cc(OC)c1 | < 0.4 µg/mL
81 | CCOC(=O)c1ccc(NC(=O)Nc2ccon2)cc1 | 6 µg/mL (≈ 21.8 µM)
82 | COc1ccc(Br)cc1CN(C)C(=O)c1ccncc1 | > 50.3 µg/mL
83 | CN(C)CC(c1ccccc1)c1ccccc1.Cl | 34.3 µg/mL
84 | O=C(c1ccccc1)N1CCN(CCc2ccccn2)CC1 | > 44.3 µg/mL
85 | Nc1ccccc1SCc1c(Cl)cccc1Cl | < 0.6 µg/mL
86 | CSc1nsc(SCC(=O)N2CCCCC2)n1 | > 43.4 µg/mL
87 | CC(C)CNC(=O)[C@H](Cc1ccccc1)NC(=O)c1cccs1 | 9.6 µg/mL (≈ 29.1 µM)
88 | CN(C)C(=O)c1cc(C(=O)c2c(F)cccc2F)c[nH]1 | > 41.7 µg/mL
89 | O=C(CSc1nnc(C2CC2)n1-c1ccccc1)NC1CCS(=O)(=O)C1 (stereo unspecified) | > 58.9 µg/mL
90 | NC(=O)CSc1nc2ccccc2c(=O)n1Cc1ccccc1 | 2.5 µg/mL (≈ 7.68 µM)
91 | O=c1cc(O)c2ccccc2n1Cc1ccccc1 | 31.9 µg/mL (≈ 127 µM)
92 | CCOc1ccccc1NC(=O)c1cc(=O)c2ccccc2o1 | < 0.7 µg/mL
93 | COc1ccc(C(=O)N2CCC3(CC2)NCCc2[nH]cnc23)cc1 | > 49 µg/mL
94 | O=C(NCc1ccco1)C(=O)c1cn(CC(=O)N2CCCCCC2)c2ccccc12 | 14.3 µg/mL (≈ 35.1 µM)
95 | OCCNC(=S)Nc1cccc(Cl)c1Cl | > 39.8 µg/mL
96 | Cc1cccc(NC(=O)Nc2c(C)[nH]c(=O)[nH]c2=O)c1C | 5.2 µg/mL (≈ 18 µM)
97 | COc1cc(NC(=O)C(Cc2ccccc2)n2cccc2)cc(OC)c1 (stereo unspecified) | 16.3 µg/mL (≈ 46.5 µM)
98 | CCOC(=O)c1csc(N)c1-c1ccc([N+](=O)[O-])cc1 | 5.5 µg/mL (≈ 18.8 µM)
99 | O=C(O)CC1(CC(=O)Nc2ccc(F)cc2F)CCCCC1 | > 46.7 µg/mL
100 | CNc1oc(-c2cccs2)nc1S(=O)(=O)c1ccccc1 | 4.2 µg/mL (≈ 13.1 µM)

Row | SMILES | solubility kinetic
101 | O=C(NCC1CCCO1)c1ccc(-c2cccc(C(F)(F)F)c2)o1 (stereo unspecified) | 38.4 µg/mL (≈ 113 µM)
102 | CCCn1c(SCC(=O)N2CCOCC2)nnc1-c1ccncc1 | > 52.1 µg/mL
103 | CC(=O)Nc1ccc2nc(NC(=O)c3cccnc3)sc2c1 | 7.4 µg/mL (≈ 23.7 µM)
104 | COc1ccccc1OCCCC(=O)Nc1nccs1 | 23.4 µg/mL (≈ 80 µM)
105 | O=C(CCN1C(=O)c2ccccc2C1=O)NCc1ccccc1 | > 46.3 µg/mL
106 | c1ccc(-c2nccc3ccccc23)cc1 | 7.3 µg/mL (≈ 35.6 µM)
107 | O=C(NCc1ncc(C(F)(F)F)cc1Cl)Nc1ccccc1 | 3.1 µg/mL (≈ 9.4 µM)
108 | CCNc1ccc(S(=O)(=O)N2CCCCC2)cn1 | > 40.4 µg/mL
109 | CC1CCCCC1NC(=O)c1ccc2c(c1)OCCO2 (stereo unspecified) | > 41.3 µg/mL
110 | O=[N+]([O-])c1ccc(SCCc2ccncc2)cc1 | 31.5 µg/mL (≈ 121 µM)
111 | COc1ccc(Cn2c(C(F)(F)F)ccc(C(N)=O)c2=O)cc1 | 8.2 µg/mL (≈ 25.1 µM)
112 | Nc1ccccc1OCCOc1ccccc1N | > 36.6 µg/mL
113 | Cc1cccc(OCCC(=O)Nc2ccc(Cl)cc2F)c1 | < 0.7 µg/mL
114 | CSc1nccc(Oc2ccccc2Cl)n1 | 6.8 µg/mL (≈ 26.9 µM)
115 | NC(=O)c1cc(S(=O)(=O)N2CCc3ccccc3C2)cs1 | 2 µg/mL (≈ 6.2 µM)
116 | NCC(c1ccccc1)c1c[nH]c2ccccc12 (stereo unspecified) | 22.1 µg/mL (≈ 93.5 µM)
117 | N#C/C(=C\c1cccnc1)C(=O)Nc1ccc(SC(F)F)cc1 | 8 µg/mL (≈ 24.1 µM)
118 | COC(=O)c1ccc(CO/N=C/c2cccc([N+](=O)[O-])c2)cc1 | < 0.3 µg/mL
119 | CCCC(C)NC(=O)c1sc2nc3n(c(=O)c2c1C)CCC3 (stereo unspecified) | > 47.9 µg/mL
120 | OC1=C(O)c2nc3cc(F)ccc3nc21 | > 30.6 µg/mL
121 | CCCCOC(=O)c1sc2nc(C)cc(C)c2c1N | 0.6 µg/mL (≈ 2.16 µM)
